Experimental data taken from ChEMBL document CHEMBL1201862, “PubChem BioAssay data set” (2004).
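48-hour exposure; five concentrations; linearly interpolated endpoints. Abbreviation: GI50, concentration required for 50% inhibition of growth.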 Active and inactive are the calls of the source. No stated cut-off is given here; in the data, active = GI50 up to about 1.1 µM and inactive = higher.

How the values were obtained:
Assay in all cases: DTP human tumour cell line panel, 48 h
NCI-H226 = system: NCI-H226
SK-MEL-28 = system: SK-MEL-28
T47D = system: T47D
MDA-MB-435 = system: MDA-MB-435
U-251 = system: U-251
UO-31 = system: UO-31
SF-268 = system: SF-268
SF-539 = system: SF-539
SN12C = system: SN12C
HCT-116 = system: HCT-116
KM12 = system: KM12
RXF 393 = system: RXF 393
Malme-3M = system: Malme-3M
HL-60 = system: HL-60
HT-29 = system: HT-29
SK-OV-3 = system: SK-OV-3
SNB-19 = system: SNB-19
SK-MEL-2 = system: SK-MEL-2
M14 = system: M14
IGROV-1 = system: IGROV-1
OVCAR-8 = system: OVCAR-8
OVCAR-5 = system: OVCAR-5
Hs-578T = system: Hs-578T
SW-620 = system: SW-620
BT-549 = system: BT-549
K562 = system: K562
MDA-N = system: MDA-N
UACC-62 = system: UACC-62
ACHN = system: ACHN
MOLT-4 = system: MOLT-4
SF-295 = system: SF-295
SR = system: SR
PC-3 = system: PC-3
TK-10 = system: TK-10
MCF7 = system: MCF7
NCI/ADR-RES = system: NCI/ADR-RES
CCRF-CEM = system: CCRF-CEM
A498 = system: A498
EKVX = system: EKVX
HCT-15 = system: HCT-15
A549 = system: A549
NCI-H460 = system: NCI-H460
OVCAR-3 = system: OVCAR-3
HCC 2998 = system: HCC 2998
HOP-62 = system: HOP-62
786-0 = system: 786-0
SK-MEL-5 = system: SK-MEL-5
HOP-92 = system: HOP-92
MDA-MB-231 = system: MDA-MB-231
DU-145 = system: DU-145
NCI-H23 = system: NCI-H23
CAKI-1 = system: CAKI-1
RPMI-8226 = system: RPMI-8226
COLO 205 = system: COLO 205
LOX IMVI = system: LOX IMVI
OVCAR-4 = system: OVCAR-4
UACC-257 = system: UACC-257

Question: `CN(C)c1ccc(/C=C/c2ccc3ccccc3[n+]2C)cc1` was tested. Which GI50 (NCI-H226) did it give?
Answer: 3.13 µM (inactive)

Question: What about the GI50 (SK-MEL-28) of the same molecule?
Answer: 3.87 µM (inactive)

Question: And the GI50 (T47D)?
Answer: 1.63 µM (inactive)

Question: What about the GI50 (MDA-MB-435) of the same molecule?
Answer: 4.21 µM (inactive)

Question: What about the GI50 (U-251) of the same molecule?
Answer: 2.38 µM (inactive)

Question: What about the GI50 (UO-31) of the same molecule?
Answer: 2.07 µM (inactive)

Question: And the GI50 (SF-268)?
Answer: 4.45 µM (inactive)

Question: And the GI50 (SF-539)?
Answer: 5.24 µM (inactive)

Question: And the GI50 (SN12C)?
Answer: 2.96 µM (inactive)

Question: What about the GI50 (HCT-116) of the same molecule?
Answer: 1.81 µM (inactive)

Question: What about the GI50 (KM12) of the same molecule?
Answer: 3.42 µM (inactive)

Question: What about the GI50 (RXF 393) of the same molecule?
Answer: 2.81 µM (inactive)

Question: What about the GI50 (Malme-3M) of the same molecule?
Answer: 4.53 µM (inactive)

Question: And the GI50 (HL-60)?
Answer: 1.34 µM (inactive)

Question: What about the GI50 (HT-29) of the same molecule?
Answer: 3.37 µM (inactive)

Question: What about the GI50 (SK-OV-3) of the same molecule?
Answer: 5.73 µM (inactive)

Question: And the GI50 (SNB-19)?
Answer: 4.31 µM (inactive)

Question: What about the GI50 (SK-MEL-2) of the same molecule?
Answer: 1.48 µM (inactive)

Question: And the GI50 (M14)?
Answer: 4.12 µM (inactive)

Question: What about the GI50 (IGROV-1) of the same molecule?
Answer: 3.54 µM (inactive)

Question: What about the GI50 (OVCAR-8) of the same molecule?
Answer: 1.39 µM (inactive)

Question: What about the GI50 (OVCAR-5) of the same molecule?
Answer: 7.01 µM (inactive)

Question: And the GI50 (Hs-578T)?
Answer: 20.4 µM (inactive)

Question: What about the GI50 (SW-620) of the same molecule?
Answer: 2.12 µM (inactive)

Question: And the GI50 (BT-549)?
Answer: 1.2 µM (inactive)

Question: What about the GI50 (K562) of the same molecule?
Answer: 0.891 µM (active)

Question: And the GI50 (MDA-N)?
Answer: 2.03 µM (inactive)

Question: And the GI50 (UACC-62)?
Answer: 3.62 µM (inactive)

Question: And the GI50 (ACHN)?
Answer: 5.62 µM (inactive)

Question: And the GI50 (MOLT-4)?
Answer: 1.47 µM (inactive)

Question: What about the GI50 (SF-295) of the same molecule?
Answer: 2.95 µM (inactive)

Question: And the GI50 (SR)?
Answer: 1.77 µM (inactive)

Question: And the GI50 (PC-3)?
Answer: 1.57 µM (inactive)

Question: What about the GI50 (TK-10) of the same molecule?
Answer: 5.16 µM (inactive)

Question: What about the GI50 (MCF7) of the same molecule?
Answer: 1.64 µM (inactive)

Question: And the GI50 (NCI/ADR-RES)?
Answer: > 100 µM (inactive)

Question: What about the GI50 (CCRF-CEM) of the same molecule?
Answer: 1.66 µM (inactive)

Question: And the GI50 (A498)?
Answer: 20.1 µM (inactive)

Question: What about the GI50 (EKVX) of the same molecule?
Answer: 1.62 µM (inactive)

Question: And the GI50 (HCT-15)?
Answer: 6.65 µM

Question: What about the GI50 (A549) of the same molecule?
Answer: 3.13 µM (inactive)

Question: And the GI50 (NCI-H460)?
Answer: 3.64 µM (inactive)

Question: What about the GI50 (OVCAR-3) of the same molecule?
Answer: 2.97 µM (inactive)

Question: What about the GI50 (HCC 2998) of the same molecule?
Answer: 4.13 µM (inactive)

Question: And the GI50 (HOP-62)?
Answer: 7.13 µM (inactive)

Question: And the GI50 (786-0)?
Answer: 6.76 µM (inactive)

Question: What about the GI50 (SK-MEL-5) of the same molecule?
Answer: 3.06 µM (inactive)

Question: What about the GI50 (HOP-92) of the same molecule?
Answer: 1.99 µM (inactive)

Question: And the GI50 (MDA-MB-231)?
Answer: 3.28 µM (inactive)

Question: What about the GI50 (DU-145) of the same molecule?
Answer: 1.67 µM (inactive)

Question: And the GI50 (NCI-H23)?
Answer: 1.48 µM (inactive)

Question: For `CCNC(=S)N/N=C1\C(=O)Nc2ccc([N+](=O)[O-])cc21`, which GI50 (NCI-H226) is on record?
Answer: 97.7 µM (inactive)

Question: What about the GI50 (CAKI-1) of the same molecule?
Answer: 11.9 µM (inactive)

Question: What about the GI50 (SK-MEL-28) of the same molecule?
Answer: 48 µM (inactive)

Question: And the GI50 (T47D)?
Answer: 31.6 µM (inactive)

Question: And the GI50 (MDA-MB-435)?
Answer: 88.1 µM (inactive)

Question: What about the GI50 (U-251) of the same molecule?
Answer: 29.5 µM (inactive)

Question: What about the GI50 (UO-31) of the same molecule?
Answer: 25.8 µM (inactive)

Question: And the GI50 (SF-268)?
Answer: 44.7 µM (inactive)

Question: What about the GI50 (SF-539) of the same molecule?
Answer: 30.2 µM (inactive)

Question: And the GI50 (SN12C)?
Answer: 31.7 µM (inactive)

Question: What about the GI50 (HCT-116) of the same molecule?
Answer: 27.7 µM (inactive)

Question: And the GI50 (KM12)?
Answer: 52.7 µM (inactive)

Question: What about the GI50 (RPMI-8226) of the same molecule?
Answer: > 100 µM (inactive)

Question: And the GI50 (RXF 393)?
Answer: 26 µM (inactive)

Question: What about the GI50 (Malme-3M) of the same molecule?
Answer: 57.8 µM (inactive)

Question: What about the GI50 (HL-60) of the same molecule?
Answer: 92.9 µM (inactive)

Question: And the GI50 (HT-29)?
Answer: 49.5 µM (inactive)

Question: What about the GI50 (SK-OV-3) of the same molecule?
Answer: 39.4 µM (inactive)

Question: And the GI50 (SNB-19)?
Answer: 45.4 µM (inactive)

Question: And the GI50 (SK-MEL-2)?
Answer: > 100 µM (inactive)

Question: And the GI50 (COLO 205)?
Answer: > 100 µM (inactive)

Question: What about the GI50 (M14) of the same molecule?
Answer: 46.7 µM (inactive)

Question: And the GI50 (IGROV-1)?
Answer: 31.6 µM (inactive)

Question: What about the GI50 (OVCAR-8) of the same molecule?
Answer: 34.7 µM (inactive)

Question: What about the GI50 (OVCAR-5) of the same molecule?
Answer: > 100 µM (inactive)

Question: And the GI50 (Hs-578T)?
Answer: 98.9 µM (inactive)

Question: What about the GI50 (SW-620) of the same molecule?
Answer: 50.2 µM (inactive)

Question: What about the GI50 (BT-549) of the same molecule?
Answer: > 100 µM (inactive)

Question: What about the GI50 (K562) of the same molecule?
Answer: 52.7 µM (inactive)

Question: What about the GI50 (MDA-N) of the same molecule?
Answer: > 100 µM (inactive)

Question: And the GI50 (UACC-62)?
Answer: 99.1 µM (inactive)

Question: And the GI50 (ACHN)?
Answer: 31.2 µM (inactive)

Question: And the GI50 (MOLT-4)?
Answer: 22.4 µM (inactive)

Question: What about the GI50 (LOX IMVI) of the same molecule?
Answer: 61.4 µM (inactive)

Question: What about the GI50 (SF-295) of the same molecule?
Answer: 29.3 µM (inactive)

Question: What about the GI50 (SR) of the same molecule?
Answer: 31.3 µM (inactive)

Question: And the GI50 (PC-3)?
Answer: 97.5 µM (inactive)

Question: And the GI50 (TK-10)?
Answer: 18.2 µM (inactive)

Question: What about the GI50 (MCF7) of the same molecule?
Answer: 41 µM (inactive)

Question: What about the GI50 (NCI/ADR-RES) of the same molecule?
Answer: 32.8 µM (inactive)

Question: And the GI50 (OVCAR-4)?
Answer: 25.6 µM (inactive)

Question: What about the GI50 (CCRF-CEM) of the same molecule?
Answer: 7.06 µM (inactive)

Question: What about the GI50 (A498) of the same molecule?
Answer: 22.9 µM (inactive)

Question: What about the GI50 (EKVX) of the same molecule?
Answer: 50.5 µM (inactive)

Question: What about the GI50 (HCT-15) of the same molecule?
Answer: 49.3 µM

Question: What about the GI50 (UACC-257) of the same molecule?
Answer: 53.5 µM (inactive)

Question: What about the GI50 (A549) of the same molecule?
Answer: 35.7 µM (inactive)

Question: And the GI50 (NCI-H460)?
Answer: 20.4 µM (inactive)

Question: And the GI50 (OVCAR-3)?
Answer: 40.4 µM (inactive)

Question: What about the GI50 (HCC 2998) of the same molecule?
Answer: 24.9 µM (inactive)

Question: What about the GI50 (HOP-62) of the same molecule?
Answer: 27.7 µM (inactive)

Question: And the GI50 (786-0)?
Answer: 19.1 µM (inactive)

Question: What about the GI50 (SK-MEL-5) of the same molecule?
Answer: 35.1 µM (inactive)

Question: What about the GI50 (HOP-92) of the same molecule?
Answer: 34 µM (inactive)

Question: What about the GI50 (MDA-MB-231) of the same molecule?
Answer: 35.3 µM (inactive)

Question: What about the GI50 (DU-145) of the same molecule?
Answer: 33 µM (inactive)

Question: And the GI50 (NCI-H23)?
Answer: > 100 µM (inactive)
